From patent publication US20180133203A1, “METHODS OF TREATING LIVER DISEASE” (Gilead Sciences, Inc., priority 2016, published 2018)

Tested on: Col1a1
Assay: Hepatic expression of Col1a1 by qRT-PCR, CDHFD/NaNO2 rat model of NASH
Type: in vivo, male Wistar rats
Settings: vs vehicle; rats; Formula (I) 0.2% in diet, Formula (III) 30 mg/kg/day, week 4 to 14
Protocol: The following study was conducted to evaluate the efficacy of the combination of an ASK1 inhibitor and an FXR agonist in a rodent model of non-alcoholic steatohepatitis (NASH), relative to the efficacy of the individual agents alone in the model. NASH was induced in male Wistar rats by administration of a choline-deficient high fat diet (CDHFD) combined with the chronic administration of sodium nitrite (CDHFD/NaNO2). The model capitalizes on the “two hit theory” of NASH by inducing both metabolic dysfunction (CDHFD) and oxidative stress (NaNO2) in the liver to result in hepatic fibrosis that is similar in character and severity to that seen in patients with advanced NASH. […] The following endpoints were assessed at the completion of the 14 week study: i) liver fibrosis measured by liver hydroxyproline (OHP) content and by quantitative morphometric analysis of collagen content by Picosirius red (PSR) staining; ii) myofibroblast activation in liver sections as measured by quantitative IHC of the myofibroblast marker desmin; and, iii) Col1a1 and Timp1 in liver tissue measured by RT-PCR. […] All endpoints were assessed at the completion of the 14 week study protocol. […] Quantitative PCR was performed and analyzed using Absolute QPCR Rox Mix (Life Technologies, Cat No # AB-1132) and a 384-format ABI 7900HT Sequence Detection System (Applied Biosystems). […]

Row | Structure (SMILES) | reduction of hepatic Col1a1 expression induced by CDHFD/NaNO2
1 | O=C(O)c1ccnc(N2CC(O)(c3ccc(OCc4c(-c5c(Cl)cccc5Cl)noc4C4CC4)cc3Cl)C2)c1 [Formula (III)] | 44%
2 | O=C(Nc1cccc(-c2nncn2C2CC2)c1)c1cc(-n2cnc(C3CC3)c2)ccn1 [Formula (I)] | 65%
